Assay results from patent US5658885A, “Amidino and guanidino substituted boronic acid inhibitors of trypsin-like enzymes” (The DuPont Merck Pharmaceutical Company, priority 1994, dated 1997).
Where a name gives a salt, the structure may show the parent alone.

Biological target: T1, human thrombin (Homo sapiens, UniProt P00734)
T1 construct: 0.2-0.5 nM human thrombin or human factor Xa; purchased Enzyme Research Laboratories, South Bend, Ind
Assay: Inhibition of thrombin hydrolysis of chromogenic substrate S2238 (Ki)
Type: biochemical
Details: S2238, pH 7.5
Method: The effectiveness of compounds of the present invention as inhibitors of blood coagulation proteases was determined using purified human proteases and synthetic substrates following procedures similar to those described in Kettner et al. (1990).
For these assays, the rate of enzymatic (thrombin, Factor Xa, and Factor VIIa) hydrolysis of chromogenic substrates (S2238 (H-D-Phe-Pip-Arg-pNA), S2222, and S2288, respectively; Kabi Pharmacia, Franklin, Ohio) was measured both in the absence and presence of compounds of the present invention. […] A decrease in the rate of absorbance change at 405 nm in the presence of inhibitor is indicative of enzyme inhibition. The results of this assay are expressed as inhibitory constant, Ki.
Thrombin and Xa determinations were made in 0.10M sodium phosphate buffer, pH 7.5, containing 0.20M NaCl, and 0.5% PEG 8000. VIIa determinations were made in 0.05M tris buffer, pH 7.6, containing 0.10M NaCl, 4 mM CaCl2, and 0.1% bovine serum albumin.
Reactions were allowed to go for 30 minutes and the velocities (rate of absorbance change vs time) were measured in the time frame of 25-30 minutes. The following relationship was used to calculate Ki values. [formula] where: vo is the velocity of the control in the absence of inhibitor;
vs is the velocity in the presence of inhibitor;
I is the concentration of inhibitor;
Ki is the dissociation constant of the enzyme: inhibitor complex;
S is the concentration of substrate;
Km is the Michaelis constant.

“Boc--(D)Phe--Pro--boroOrn[C(NCN)SCH3 ]--C10 H16 [Example 107]” and `CC(=O)NCC(=O)N[C@H](Cc1ccccc1)C(=O)N1CCC[C@H]1C(=O)NC(CCCNS(C)(=O)=O)B1OC2CC3CC(C3(C)C)C2(C)O1` (stereo partly drawn) [Example 118, Ac--Gly--(D)Phe--Pro--BoroOrn(N-Methanesulfonyl)-C10 H16] cannot be ordered by Ki: < 500 nM for the first, < 500 nM for the second.

“PhSO2 --(D)Phe--Pro--boroArg(CH3)--OH.HCl [Example 58]” and `CC(C)(C)OC(=O)N[C@H](Cc1ccccc1)C(=O)N1CCCC1C(=O)NC(CCCNS(C)(=O)=O)B1OC2CC3CC(C3(C)C)C2(C)O1` (stereo partly drawn) [Example 113, Boc--(D)Phe--Pro--boroOrn(N-Methanesulfonyl)--C10 H16] cannot be ordered by Ki: < 500 nM for the first, < 500 nM for the second.

`CC(=O)N[C@H](Cc1ccccc1)C(=O)N1CCC[C@H]1C(=O)NC(CCCCC#N)B1OC2CC3CC(C3(C)C)C2(C)O1` (stereo partly drawn) [Example 1, Ac--(D)Phe--Pro--NH--CH[(CH2)4 CN]BO2 C10 H16] and `CC(C)(C)OC(=O)N[C@H](Cc1ccccc1)C(=O)N1CCC[C@H]1C(=O)NC(CCCNC=N)B1OC2CC3CC(C3(C)C)C2(C)O1` (stereo partly drawn) [Example 6, Boc--(D)Phe--Pro--boroOrn(CH=NH)]--C10 H16.0.5 HCl.0.5 BSA] cannot be ordered by Ki: < 50000 nM for the first, < 500 nM for the second.

`CC(C)(C)OC(=O)NC(Cc1ccccc1)C(=O)N1CCCC1C(=O)NC(CC1CCC(N=C(N)N)CC1)B1OC2CC3CC(C3(C)C)C2(C)O1` (stereo not drawn) [Example 128, Boc--(D)Phe--Pro--NH--CH[CH2 (4-guanidino-cyclohexyl)]BO2 --C10 H16] and `CN(C)[C@H](Cc1ccccc1)C(=O)N1CCCC1C(=O)NC(CCCNS(C)(=O)=O)B1OC2CC3CC(C3(C)C)C2(C)O1` (stereo partly drawn) [Example 117, N,N-dimethyl-(D)Phe--Pro--boroOrn-(N-Methanesulfonyl)-C10 H16.HCl] cannot be ordered by Ki: < 500 nM for the first, < 500 nM for the second.

`CC(C)(C)OC(=O)NC(Cc1ccccc1)C(=O)N1CCCC1C(=O)NC(CCCNC(=O)CO)B1OC2CC3CC(C3(C)C)C2(C)O1` (stereo not drawn) [Example 112, Boc--(D)Phe--Pro--boroOrn(COCH2 OH)--C10 H16] and `CCCS(=O)(=O)NC(Cc1ccccc1)C(=O)N1CCCC1C(=O)NC(CCCNC(=N)NC)B(O)O` (stereo not drawn) [Example 64, CH3 CH2 CH2 SO2 --(D)Phe--Pro--boroArg(CH3)--OH.HCl] cannot be ordered by Ki: < 500 nM for the first, < 500 nM for the second.

“Hydrocinnamoyl-Pro--boroIrg(CH3)--OH.HBr [Example 50]” and `CN(CC(=O)NC(CCCNC=N)B(O)O)C(=O)C(Cc1ccccc1)NS(C)(=O)=O` (stereo not drawn) [Example 68, Ms--(D)Phe--Sar--boroOrn(CH=NH)--OH.HCI] cannot be ordered by Ki: < 50000 nM for the first, < 500 nM for the second.

`CC(C)(C)OC(=O)N[C@H](Cc1ccccc1)C(=O)N1CCC[C@H]1C(=O)NC(CC1CCC(N)CC1)B1OC2CC3CC(C3(C)C)C2(C)O1` (stereo partly drawn) [Example 125, Boc--(D)Phe--Pro--NH--CH[CH2 (4-amino-cyclohexyl)]BO2 --C10 H16] and `CC(C)(C)OC(=O)NC(Cc1ccccc1)C(=O)N1CCCC1C(=O)NC(CCCNC(N)=O)B1OC2CC3CC(C3(C)C)C2(C)O1` (stereo not drawn) [Example 108, Boc--(D)Phe--Pro--boroOrn(CONH2)--C10 H16] cannot be ordered by Ki: < 500 nM for the first, < 500 nM for the second.

`COCCCC(NC(=O)C1CCCN1C(=O)C(Cc1ccccc1)NC(=O)OC(C)(C)C)B1OC2CC3CC(C3(C)C)C2(C)O1` (stereo not drawn) [Example 138, Boc--(D)--Phe--Pro--boroGly[(CH2)3 --OCH3]--C10 H16] and `CC(=O)NC(Cc1ccccc1)C(=O)N1CCCC1C(=O)NC(Cc1ccc(C(=N)N)cc1)B1OC2CC3CC(C3(C)C)C2(C)O1` (stereo not drawn) [Example 22, Ac--(D)Phe--Pro--boroPhe(p-C(NH)NH2)--C10 H16.BSA] cannot be ordered by Ki: < 500 nM for the first, < 500 nM for the second.

`CCCS(=O)(=O)N[C@H](Cc1ccccc1)C(=O)N1CCC[C@H]1C(=O)N[C@@H](CCCNC=N)B(O)O` [Example 63, CH3 CH2 CH2 SO2 --(D)Phe--Pro--boroOrn(CH=NH)--OH.HCl] and `CC(C)(C)OC(=O)NC(Cc1ccccc1)C(=O)N1CCCC1C(=O)NC(CCCONC(=N)N)B1OC2CC3CC(C3(C)C)C2(C)O1` (stereo not drawn) [Example 104, Boc--(D)Phe--Pro--boroGly[(CH2)3 --ONHC(=NH)NH2]--C10 H16.HCl] cannot be ordered by Ki: < 500 nM for the first, < 500 nM for the second.
